Experimental data reported in ChEMBL document CHEMBL1201862, “PubChem BioAssay data set” (2004).
Active and inactive are the calls of the source. Rule as the data show it, for most assays here: actives have a measured EC50 and inactives only a lower limit.

Key:
[1] = NIH-3T3 fibroblast cytotoxicity, dose response, cytotoxicity control, cell-based, fluorescence, Alamar Blue, secondary assay (AID 2327); type: functional;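 also: NIH-3T3 mouse fibroblasts cultured with fluconazole at 8 µg/mL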
[2] = C. albicans growth with fluconazole, confirmation, fluorescence, retest (AID 2467); type: functional, cell-based
[3] = target: T1, Serine/threonine-protein phosphatase (Candida dubliniensis (strain CD36 / CBS 7987 / NCPF 3949 / NRRLY-17841) (Yeast), UniProt B9W6M3); assay: calcineurin pathway inhibitors in yeast reporter, dose response, S. cerevisiae, CDRE-lacZ, luminescence, secondary (AID 2388); type: functional, cell-based;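 also: yeast reporter cells carrying a calcineurin-responsive lacZ construct stimulated with calcium chloride; luminescent beta-galactosidase reporter signal in whole cells rather than isolated phosphatase activity; potency for inhibition where a drop in reporter signal means calcineurin blockade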
T1 sequence (B9W6M3 whole entry): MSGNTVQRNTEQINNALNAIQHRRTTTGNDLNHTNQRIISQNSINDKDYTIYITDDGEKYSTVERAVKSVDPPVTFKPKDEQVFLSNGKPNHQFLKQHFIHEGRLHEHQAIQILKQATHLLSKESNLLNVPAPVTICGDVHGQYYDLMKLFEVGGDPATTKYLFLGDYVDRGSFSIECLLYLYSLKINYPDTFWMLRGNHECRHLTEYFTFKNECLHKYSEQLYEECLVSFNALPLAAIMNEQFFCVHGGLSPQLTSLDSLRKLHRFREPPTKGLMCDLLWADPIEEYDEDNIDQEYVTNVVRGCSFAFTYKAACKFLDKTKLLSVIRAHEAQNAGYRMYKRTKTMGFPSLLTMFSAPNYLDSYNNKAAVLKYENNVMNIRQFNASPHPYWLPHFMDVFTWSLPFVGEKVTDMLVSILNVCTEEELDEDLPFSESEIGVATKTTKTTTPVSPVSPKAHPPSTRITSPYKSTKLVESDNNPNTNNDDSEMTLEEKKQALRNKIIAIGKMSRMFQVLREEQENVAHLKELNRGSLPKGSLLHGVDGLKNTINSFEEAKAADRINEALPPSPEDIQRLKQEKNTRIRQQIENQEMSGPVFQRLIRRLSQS

[4] = target: ATP-dependent molecular chaperone HSP82 (Candida albicans (strain WO-1) (Yeast), UniProt C4YTQ8); assay: loss of DOC-induced GRE-beta-galactosidase reporter signal, dose response, Hsp90 inhibitor project, S. cerevisiae, luminescence (AID 2400); type: functional, cell-based;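 also: beta-galactosidase luminescence from glucocorticoid response element reporter as proxy for Hsp90 function; inhibitor potency where signal loss means Hsp90 inhibition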
[5] = target: T2, Corticotropin-releasing factor receptor 2/Corticotropin-releasing factor-binding protein (Homo sapiens, UniProt P24387+Q13324); assay: activators of CRF receptor 2 with binding protein – uHTS hits, confirmation (AID 602473); type: functional; settings: read-out: EC50_Mean
T2 sequence (Q13324 whole entry): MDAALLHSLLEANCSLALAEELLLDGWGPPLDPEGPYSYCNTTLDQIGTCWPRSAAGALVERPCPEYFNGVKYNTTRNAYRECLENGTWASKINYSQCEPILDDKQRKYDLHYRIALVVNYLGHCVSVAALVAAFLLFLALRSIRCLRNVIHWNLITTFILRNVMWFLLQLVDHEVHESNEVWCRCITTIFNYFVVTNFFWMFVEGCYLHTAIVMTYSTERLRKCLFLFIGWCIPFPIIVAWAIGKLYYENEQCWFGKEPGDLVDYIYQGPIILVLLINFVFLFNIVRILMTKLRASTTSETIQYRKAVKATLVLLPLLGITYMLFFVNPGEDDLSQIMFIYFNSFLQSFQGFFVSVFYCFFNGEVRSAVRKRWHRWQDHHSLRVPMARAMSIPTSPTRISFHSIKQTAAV
T2 sequence (P24387 whole entry): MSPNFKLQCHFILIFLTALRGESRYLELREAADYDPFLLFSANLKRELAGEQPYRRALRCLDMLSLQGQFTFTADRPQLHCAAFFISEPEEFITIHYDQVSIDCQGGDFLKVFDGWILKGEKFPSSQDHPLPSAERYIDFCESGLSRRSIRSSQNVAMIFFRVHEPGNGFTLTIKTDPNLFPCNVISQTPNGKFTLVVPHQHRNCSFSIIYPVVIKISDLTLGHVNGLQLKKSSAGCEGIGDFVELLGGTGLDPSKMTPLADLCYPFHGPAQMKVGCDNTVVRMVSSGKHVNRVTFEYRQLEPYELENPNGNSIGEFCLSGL

Galanin receptor type 3 = target: T3, Galanin receptor type 3 (Homo sapiens, UniProt O60755); assay: Fluorescence-based cell-based primary high throughput dose response assay to identify antagonists of the Galanin Receptor 3 (GalR3).; type: functional
T3 sequence (O60755 whole entry): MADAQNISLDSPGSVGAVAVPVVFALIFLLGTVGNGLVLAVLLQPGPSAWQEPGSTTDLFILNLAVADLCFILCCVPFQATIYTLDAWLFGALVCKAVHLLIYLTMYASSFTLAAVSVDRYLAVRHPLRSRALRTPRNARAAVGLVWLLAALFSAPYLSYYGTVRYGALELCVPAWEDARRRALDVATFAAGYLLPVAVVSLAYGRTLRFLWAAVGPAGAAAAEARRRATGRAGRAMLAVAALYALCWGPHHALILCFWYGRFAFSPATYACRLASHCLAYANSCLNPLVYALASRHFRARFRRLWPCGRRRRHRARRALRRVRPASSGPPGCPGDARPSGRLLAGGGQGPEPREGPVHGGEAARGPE

cells = type: functional, cell-based; settings: HEK-CNG
[6] = target: T4, DNA repair protein RAD52 homolog (Homo sapiens, UniProt P43351); type: functional, biochemical
T4 sequence (P43351 whole entry): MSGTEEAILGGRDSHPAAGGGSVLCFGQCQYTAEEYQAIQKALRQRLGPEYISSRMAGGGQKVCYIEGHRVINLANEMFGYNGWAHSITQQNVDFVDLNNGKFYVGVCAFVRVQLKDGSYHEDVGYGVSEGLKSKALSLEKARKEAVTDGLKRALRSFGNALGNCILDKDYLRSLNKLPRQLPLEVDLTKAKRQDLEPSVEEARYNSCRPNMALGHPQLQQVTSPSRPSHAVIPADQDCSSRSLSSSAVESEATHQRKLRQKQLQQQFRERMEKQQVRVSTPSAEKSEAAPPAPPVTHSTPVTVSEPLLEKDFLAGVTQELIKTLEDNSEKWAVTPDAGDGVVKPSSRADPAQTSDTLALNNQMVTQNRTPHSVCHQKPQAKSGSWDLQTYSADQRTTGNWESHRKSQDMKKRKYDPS

[7] = system: Streptococcus sp. 'group A'; assay: growth inhibition of control SK(-) GAS strain, dose response, counter-screen for streptokinase expression inhibitor project, luminescence, kanamycin, BacTiterGlo, confirmation (AID 1900); type: functional, organism-based
Streptokinase A = target: T5, Streptokinase A (Streptococcus pyogenes serotype M1, UniProt P10520); assay: S. pyogenes streptokinase expression inhibitors, potency, dose response, plasminogen activation absorbance, OD405 (AID 1914); type: functional, Streptococcus pyogenes M1 GAS;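 also: secreted streptokinase activity via plasminogen activation per viability signal from cell pellet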
T5 sequence (P10520 whole entry): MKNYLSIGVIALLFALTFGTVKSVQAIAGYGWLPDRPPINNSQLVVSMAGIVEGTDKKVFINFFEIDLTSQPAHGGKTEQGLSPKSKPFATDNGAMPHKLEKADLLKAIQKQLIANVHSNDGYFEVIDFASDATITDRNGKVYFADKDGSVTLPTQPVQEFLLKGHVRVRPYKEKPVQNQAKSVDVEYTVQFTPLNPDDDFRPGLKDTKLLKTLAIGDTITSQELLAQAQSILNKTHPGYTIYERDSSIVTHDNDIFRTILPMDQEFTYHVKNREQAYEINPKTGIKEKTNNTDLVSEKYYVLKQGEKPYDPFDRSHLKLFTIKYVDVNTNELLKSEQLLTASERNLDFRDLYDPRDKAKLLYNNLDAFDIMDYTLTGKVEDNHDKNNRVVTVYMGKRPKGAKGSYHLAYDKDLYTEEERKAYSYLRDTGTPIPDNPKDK

Streptococcus = assay: Group A Streptococcus viability loss, dose response, counter-screen for streptokinase expression inhibitor project, luminescence, BacTiterGlo (AID 1915); type: functional, organism-based;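 also: potency for reduction of bacterial viability or growth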
H9c2 = assay: cells; type: functional, cell-based; settings: Rattus norvegicus, H9c2, Myocardium;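 also: confirmatory concentration-response retest of ultra-high-throughput screening hits for modulation of myocardial damage; cell death induced by hydrogen peroxide oxidative stress; compound pretreatment for 60 min then peroxide exposure for 2 h; potency is for protecting the cells against peroxide damage rather than for killing them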
[8] = HeLa cell cytotoxicity, dose response, cytotoxicity control for MgcRacGAP inhibitor project (AID 624300); type: functional
[9] = target: T6, Rac GTPase-activating protein 1 (Homo sapiens, UniProt Q9H0H5); assay: MgcRacGAP GTPase-activating activity inhibitors, confirmation, biochemical, ADP Hunter fluorescence, primary and confirmatory (AID 624330); type: functional
T6 sequence (Q9H0H5 whole entry): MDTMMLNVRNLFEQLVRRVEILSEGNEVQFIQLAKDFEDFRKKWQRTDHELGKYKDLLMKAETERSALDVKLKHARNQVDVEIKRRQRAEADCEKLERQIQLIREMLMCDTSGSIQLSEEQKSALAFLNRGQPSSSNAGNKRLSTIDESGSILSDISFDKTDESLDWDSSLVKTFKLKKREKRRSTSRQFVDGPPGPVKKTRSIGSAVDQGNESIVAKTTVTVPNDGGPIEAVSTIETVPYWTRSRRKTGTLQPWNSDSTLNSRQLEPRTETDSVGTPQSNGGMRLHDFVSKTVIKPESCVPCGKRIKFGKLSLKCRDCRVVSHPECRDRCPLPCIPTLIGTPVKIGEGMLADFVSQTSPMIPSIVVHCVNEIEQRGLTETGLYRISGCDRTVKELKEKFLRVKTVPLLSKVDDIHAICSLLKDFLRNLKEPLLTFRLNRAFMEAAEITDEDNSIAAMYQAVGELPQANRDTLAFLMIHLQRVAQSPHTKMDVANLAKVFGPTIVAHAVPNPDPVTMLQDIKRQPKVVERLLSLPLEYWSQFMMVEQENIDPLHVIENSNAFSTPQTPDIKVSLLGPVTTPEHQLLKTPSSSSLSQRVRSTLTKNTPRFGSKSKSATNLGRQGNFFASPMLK

Sequence of ATP-dependent molecular chaperone HSP82 (C4YTQ8 whole entry): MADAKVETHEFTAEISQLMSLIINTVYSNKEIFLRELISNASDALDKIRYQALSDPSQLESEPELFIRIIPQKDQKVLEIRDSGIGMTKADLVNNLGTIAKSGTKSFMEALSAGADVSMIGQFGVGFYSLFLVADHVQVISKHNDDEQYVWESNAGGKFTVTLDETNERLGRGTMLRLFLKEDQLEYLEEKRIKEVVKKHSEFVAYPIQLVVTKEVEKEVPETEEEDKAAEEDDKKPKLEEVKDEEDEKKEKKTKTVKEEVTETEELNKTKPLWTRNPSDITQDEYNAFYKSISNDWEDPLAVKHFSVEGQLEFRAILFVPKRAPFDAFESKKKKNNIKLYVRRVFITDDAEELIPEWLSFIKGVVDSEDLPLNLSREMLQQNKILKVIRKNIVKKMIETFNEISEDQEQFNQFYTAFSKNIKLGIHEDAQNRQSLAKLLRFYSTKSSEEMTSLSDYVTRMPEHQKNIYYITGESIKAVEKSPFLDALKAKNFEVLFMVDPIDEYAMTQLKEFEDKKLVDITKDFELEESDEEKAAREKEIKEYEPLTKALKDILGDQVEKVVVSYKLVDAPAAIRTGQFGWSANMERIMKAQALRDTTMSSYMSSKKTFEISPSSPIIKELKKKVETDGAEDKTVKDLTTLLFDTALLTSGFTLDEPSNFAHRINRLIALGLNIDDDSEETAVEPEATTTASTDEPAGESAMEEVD

| Compound | EC50 [1] | EC50 [2] | EC50 [3] | EC50 [4] | AC50 [6] | also measured |
| --- | --- | --- | --- | --- | --- | --- |
| CCc1nnc(NC(=O)CSc2nc(SC)ns2)s1 | > 160 µM (inactive) | 2.88 µM (active) | > 180 µM (inactive) | > 160 µM (inactive) |  | EC50 [5]: > 53 µM (inactive) |
| O=C(Nc1nc(-c2ccc(Cl)cc2Cl)cs1)c1ccc(OCC2CCCO2)cc1 (centres undefined) |  |  |  |  |  | IC50 (Galanin receptor type 3): 1.07 µM (active); EC50 (cells): > 29.9 µM (inactive) |
| CCN1CCc2nc(N)sc2C1 |  |  |  |  | 23.4 µM (active) |  |
| COc1ccc(-n2c(/C=C/c3ccc(O)c(OC)c3)nc3ccccc3c2=O)cc1 |  |  |  |  |  | EC50 [7]: 22 µM (active); EC50 (Streptokinase A): > 150 µM (not active); EC50 (Streptococcus): 26.5 µM (active); IC50 (H9c2): > 79 µM (inactive); CC50 [8]: 71 µM (active); IC50 [9]: 52.4 µM (active) |
| CCOC(=O)c1c(N=C(S)NCC2CCCO2)sc(C)c1C (centres undefined) | > 150 µM (inactive) | 0.635 µM (active) | > 180 µM (inactive) | 16.9 µM (active) |  |  |
| c1cc(OCCCN2CCCCC2)ccc1CN1CCCCC1 [JNJ-5207852] |  |  |  |  | 10.3 µM (active) |  |
